Here are results for 22 molecules from patent US5646028A, “Alkaline serine protease streptomyces griseus var. alkaliphus having enhanced stability against urea or guanidine” (The Clorox Company, priority 1995, dated 1997).

Test [1] concerns SGPC. Put plainly: Substrate specificity of SGPC with tetrapeptide substrates sAAPXpNA. The test is classed as biochemical, Streptomyces griseus. Particulars: pH 8.0, 10% DMSO, 24° C. On the procedure:
The enzyme was assayed with a series of tetrapeptide substrates which had the form succinyl-Ala-Ala-Pro-X-para-nitroanilide (sAAPXpNA) (SEQ ID NOS. 3-20), where X is the P1 amino acid (the residue found on the N-terminal side of the bond which is cleaved). Kinetics constants kcat and Km were determined by assaying an appropriate dilution of SGPC with eight different concentrations of each substrate. Each substrate was dissolved in 100% DMSO to a concentration of 100 mM with the exception of sAAPQpNA (SEQ ID NO. 13) which was soluble only to a concentration of 15 mM. Five ul of an appropriate dilution of SGPC was placed in the wells of a microtiter dish. The reaction was initiated by adding 95 ul of the reaction mixture which was comprised of 50 ul of sodium bicine, pH 8.0, 35 ul of water, and 10 ul of the appropriate concentration of substrate in DMSO. The final concentration of DMSO was 10% in all of the reactions. All substrate concentrations were done in triplicate and rates were determined at 24° C. using a microtiter plate reader.

In test [2] the test system is SGPC. The format is biochemical, Streptomyces griseus. Conditions: for % remaining activity compared to a noninhibited control: pH 8.
The target in test [3] is succinyl-Ala-Ala-Pro-Phe-para-nitroanilide.

Several values for one entry are separate records, joined by “and”; a condition that tells them apart may be missing. Identical values can stand only once. *1 amine or outer side, *2 acyl side, *3 side chain or, on linkers, in order; H or OH if unused. Where a SMILES comes first, the peptide text is derived from it. The star is where a group is joined. pNA = O=[N+]([O-])c1ccc(N*)cc1; Suc = O=C(CCC(=O)[*:2])[*:1]

On to `C[C@H](NC(=O)CCC(=O)O)C(=O)N[C@@H](C)C(=O)N1CCC[C@H]1C(=O)N[C@@H](CCC(=O)O)C(=O)Nc1ccc([N+](=O)[O-])cc1` [sAAPEpNA] (Suc-AAPE-pNA), for which the “rates seen with the substrate” value in the test on SGPC [1] is “too samll to be reliable”.
Take `C[C@H](NC(=O)CCC(=O)O)C(=O)N[C@@H](C)C(=O)N1CCC[C@H]1C(=O)N[C@@H](CS)C(=O)Nc1ccc([N+](=O)[O-])cc1` [sAAPCpNA] (Suc-AAPC-pNA): in the test on SGPC [1], the Michaelis constant (Km) is 4.26 mM, the kcat is 61.3 S^-1 and the “kcat /Km” value is 14,380 M^-1 S^-1.
With `CSCC[C@H](NC(=O)[C@@H]1CCCN1C(=O)[C@H](C)NC(=O)[C@H](C)NC(=O)CCC(=O)O)C(=O)Nc1ccc([N+](=O)[O-])cc1` [sAAPMpNA] (Suc-AAPM-pNA), in the test with SGPC [1], the Km was 0.39 mM, the kcat was determined as 39.3 S^-1 and the “kcat /Km” value is 100,400 M^-1 S^-1.
As to `C[C@H](NC(=O)CCC(=O)O)C(=O)N[C@@H](C)C(=O)N1CCC[C@H]1C(=O)N[C@@H](CO)C(=O)Nc1ccc([N+](=O)[O-])cc1` [sAAPSpNA] (Suc-AAPS-pNA), in the test on SGPC [1], the Km amounted to 3.73 mM, the kcat was found to be 7.05 S^-1 and the “kcat /Km” value is on record as 1,893 M^-1 S^-1.
Consider `O=S(=O)(F)Cc1ccccc1` [PMSF, phenylmethylsulfonyl fluoride], for which, in the test on SGPC [2], the “inhibition of SGPC (in words)” value is given as “inhibit SGPC”; the “% remaining activity compared to a noninhibited control” value was 0.07% and 0.06%.
In the case of `C[C@H](NC(=O)CCC(=O)O)C(=O)N[C@@H](C)C(=O)N1CCC[C@H]1C(=O)N[C@@H](CCC(N)=O)C(=O)Nc1ccc([N+](=O)[O-])cc1` [sAAPQpNA] (Suc-AAPQ-pNA), in the test on SGPC [1], the Michaelis constant (Km) amounted to 14.3 mM, the kcat was 36.3 S^-1 and the “kcat /Km” value is 2,547 M^-1 S^-1.
The like results for `C[C@H](NC(=O)CCC(=O)O)C(=O)N[C@@H](C)C(=O)N1CCC[C@H]1C(=O)N[C@@H](Cc1cnc[nH]1)C(=O)Nc1ccc([N+](=O)[O-])cc1` [sAAPHpNA] (Suc-AAPH-pNA) were, in that order, 1.09 mM, 24.0 S^-1 and 21,960 M^-1 S^-1.
The like results for `C[C@H](NC(=O)CCC(=O)O)C(=O)N[C@@H](C)C(=O)N1CCC[C@H]1C(=O)N[C@@H](CCCNC(=N)N)C(=O)Nc1ccc([N+](=O)[O-])cc1` [sAAPRpNA] (Suc-AAPR-pNA) were, in that order, 4.17 mM, 16.7 S^-1 and 4,001 M^-1 S^-1.
On the same counts, the results for `C[C@H](NC(=O)CCC(=O)O)C(=O)N[C@@H](C)C(=O)N1CCC[C@H]1C(=O)N[C@@H](CC(N)=O)C(=O)Nc1ccc([N+](=O)[O-])cc1` [sAAPNpNA] (Suc-AAPN-pNA) are 2.91 mM, 35.3 S^-1 and 12,160 M^-1 S^-1.
Take `C[C@H](NC(=O)CCC(=O)O)C(=O)N[C@@H](C)C(=O)N1CCC[C@H]1C(=O)NCC(=O)Nc1ccc([N+](=O)[O-])cc1` [sAAPGpNA] (Suc-AAPG-pNA): the “rates seen with the substrate” value in the test with SGPC [1] is recorded as “too samll to be reliable”.
For `C[C@H](NC(=O)CCC(=O)O)C(=O)N[C@@H](C)C(=O)N1CCC[C@H]1C(=O)N[C@@H](C)C(=O)Nc1ccc([N+](=O)[O-])cc1` [sAAPApNA] (Suc-AAPA-pNA), in the test with SGPC [1], the Km amounted to 5.29 mM, the kcat was found to be 36.1 S^-1 and the “kcat /Km” value is listed as 6,826 M^-1 S^-1.
For the molecule `C[C@H](NC(=O)CCC(=O)O)C(=O)N[C@@H](C)C(=O)N1CCC[C@H]1C(=O)N[C@H](C(=O)Nc1ccc([N+](=O)[O-])cc1)[C@@H](C)O` [sAAPTpNA] (Suc-AAPT-pNA), in the test with SGPC [1], the Km amounted to 4.34 mM, the kcat was 7.69 S^-1 and the “kcat /Km” value was 1,769 M^-1 S^-1.
For S. griseus protease C (enzyme), the kcat /Km stood at 22000 M^-1 S^-1 with sAAPHpNA; 4000 M^-1 S^-1 in the test with sAAPRpNA; 1420 M^-1 S^-1 with sAAPVpNA; 2550 M^-1 S^-1 in the test with sAAPQpNA; 14400 M^-1 S^-1 in the test with sAAPCpNA; 1770 M^-1 S^-1 with sAAPTpNA. The kcat /Km amounted to 1890 M^-1 S^-1 with sAAPSpNA; 27000 M^-1 S^-1 in the test with sAAPLpNA; 351 M^-1 S^-1 with sAAPDpNA; 12200 M^-1 S^-1 with sAAPNpNA; 100000 M^-1 S^-1 with sAAPMpNA; 138000 M^-1 S^-1 in [3]. Also, the figures for the kcat /Km in the test with sAAPYpNA, in the test with sAAPKpNA and in the test with sAAPApNA were 61800 M^-1 S^-1, 2580 M^-1 S^-1 and 6830 M^-1 S^-1, respectively.
Consider `O=C(O)CN(CCN(CC(=O)O)CC(=O)O)CC(=O)O` [EDTA, ethylenediaminetetraacetic acid], for which, in the test on SGPC [2], the “inhibition of SGPC (in words)” value is recorded as “no significant inhibition”; the “% remaining activity compared to a noninhibited control” value was 97% and 94%.
Turning to `C[C@H](NC(=O)CCC(=O)O)C(=O)N[C@@H](C)C(=O)N1CCC[C@H]1C(=O)N[C@@H](Cc1ccccc1)C(=O)Nc1ccc([N+](=O)[O-])cc1` [sAAPFpNA, succinyl-Ala-Ala-Pro-Phe-para-nitroanilide] (Suc-AAPF-pNA), in the test on SGPC [1], the Km was found to be 0.29 mM, the kcat was found to be 39.7 S^-1 and the “kcat /Km” value is reported as 137,600 M^-1 S^-1.
The like results for `CC(C)C[C@H](NC(=O)[C@@H]1CCCN1C(=O)[C@H](C)NC(=O)[C@H](C)NC(=O)CCC(=O)O)C(=O)Nc1ccc([N+](=O)[O-])cc1` [sAAPLpNA] (Suc-AAPL-pNA) were, in that order, 0.92 mM, 24.8 S^-1 and 27,030 M^-1 S^-1.
Take `CC(C)[C@H](NC(=O)[C@@H]1CCCN1C(=O)[C@H](C)NC(=O)[C@H](C)NC(=O)CCC(=O)O)C(=O)Nc1ccc([N+](=O)[O-])cc1` [sAAPVpNA] (Suc-AAPV-pNA): in the test on SGPC [1], the Michaelis constant (Km) worked out at 1.08 mM, the kcat came out at 0.53 S^-1 and the “kcat /Km” value is 1,422 M^-1 S^-1.
Consider `CC[C@H](C)[C@H](NC(=O)[C@@H]1CCCN1C(=O)[C@H](C)NC(=O)[C@H](C)NC(=O)CCC(=O)O)C(=O)Nc1ccc([N+](=O)[O-])cc1` [sAAPIpNA] (Suc-AAPI-pNA), for which the “rates seen with the substrate” value with SGPC [1] was “too samll to be reliable”.
Take `C[C@H](NC(=O)CCC(=O)O)C(=O)N[C@@H](C)C(=O)N1CCC[C@H]1C(=O)N[C@@H](CCCCN)C(=O)Nc1ccc([N+](=O)[O-])cc1` [sAAPKpNA] (Suc-AAPK-pNA): in the test with SGPC [1], the Michaelis constant (Km) amounted to 4.22 mM, the kcat amounted to 10.9 S^-1 and the “kcat /Km” value was 2,577 M^-1 S^-1.
The like results for `C[C@H](NC(=O)CCC(=O)O)C(=O)N[C@@H](C)C(=O)N1CCC[C@H]1C(=O)N[C@@H](CC(=O)O)C(=O)Nc1ccc([N+](=O)[O-])cc1` [sAAPDpNA] (Suc-AAPD-pNA) were, in that order, 19.6 mM, 6.89 S^-1 and 351 M^-1 S^-1.
On the same counts, the results for `C[C@H](NC(=O)CCC(=O)O)C(=O)N[C@@H](C)C(=O)N1CCC[C@H]1C(=O)N[C@@H](Cc1ccc(O)cc1)C(=O)Nc1ccc([N+](=O)[O-])cc1` [sAAPYpNA] (Suc-AAPY-pNA) are 0.49 mM, 27.7 S^-1 and 61,770 M^-1 S^-1.
With `O=C(O)CI` [IOAc, iodoacetic acid], in the test on SGPC [2], the “inhibition of SGPC (in words)” value is on record as “no significant inhibition”; the “% remaining activity compared to a noninhibited control” value was 104% and 103%.
